What all share (test): Kinase selectivity, DiscoverX scanMAX Kinase assay panel (% control)
Common to all, as to assay type: binding

For assay [1], the target named is T1, kinases of the scanMAX Kinase assay panel (Homo sapiens, UniProt P54762).
T1 construct: purchased DiscoverX Co. (contract measurement) scanMAX Kinase assay panel
T1 sequence (P54762 18-984): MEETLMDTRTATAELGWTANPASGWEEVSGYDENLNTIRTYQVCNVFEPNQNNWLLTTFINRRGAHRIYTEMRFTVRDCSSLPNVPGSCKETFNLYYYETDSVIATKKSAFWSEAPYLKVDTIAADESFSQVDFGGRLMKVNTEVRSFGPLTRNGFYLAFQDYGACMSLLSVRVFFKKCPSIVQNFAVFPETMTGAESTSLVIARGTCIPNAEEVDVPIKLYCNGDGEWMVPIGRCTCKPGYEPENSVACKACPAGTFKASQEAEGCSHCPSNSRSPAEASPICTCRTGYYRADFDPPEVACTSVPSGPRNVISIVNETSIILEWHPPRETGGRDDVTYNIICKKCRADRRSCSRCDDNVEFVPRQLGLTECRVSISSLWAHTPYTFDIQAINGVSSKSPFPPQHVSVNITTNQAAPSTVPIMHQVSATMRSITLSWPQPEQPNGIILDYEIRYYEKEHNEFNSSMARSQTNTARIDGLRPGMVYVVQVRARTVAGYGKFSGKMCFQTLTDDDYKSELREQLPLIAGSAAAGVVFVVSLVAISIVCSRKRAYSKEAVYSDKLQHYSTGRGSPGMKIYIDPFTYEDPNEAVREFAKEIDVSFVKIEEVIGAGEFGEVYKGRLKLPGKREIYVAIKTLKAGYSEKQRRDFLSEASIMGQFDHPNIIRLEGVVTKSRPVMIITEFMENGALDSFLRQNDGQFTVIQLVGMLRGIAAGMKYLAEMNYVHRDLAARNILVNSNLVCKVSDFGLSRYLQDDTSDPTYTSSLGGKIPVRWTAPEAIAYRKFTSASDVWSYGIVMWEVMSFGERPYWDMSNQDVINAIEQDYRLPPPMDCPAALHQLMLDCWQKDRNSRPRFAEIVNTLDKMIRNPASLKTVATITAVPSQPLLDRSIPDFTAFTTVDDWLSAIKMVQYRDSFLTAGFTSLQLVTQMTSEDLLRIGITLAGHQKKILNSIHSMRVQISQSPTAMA
Particulars: EPHB1; 1 uM. In outline: (§1)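 Single-point screen, 1 uM cpd in DMSO. % ctrl = (cpd − pos ctrl)/(neg ctrl − pos ctrl)×100; pos ctrl = 0%, DMSO neg ctrl = 100%. Hit cutoff <35%.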

Assay [2] deals with T2, kinases of the scanMAX Kinase assay panel (Homo sapiens, UniProt Q13043).
T2 construct: purchased DiscoverX Co. (contract measurement) scanMAX Kinase assay panel
T2 sequence (Q13043 1-487): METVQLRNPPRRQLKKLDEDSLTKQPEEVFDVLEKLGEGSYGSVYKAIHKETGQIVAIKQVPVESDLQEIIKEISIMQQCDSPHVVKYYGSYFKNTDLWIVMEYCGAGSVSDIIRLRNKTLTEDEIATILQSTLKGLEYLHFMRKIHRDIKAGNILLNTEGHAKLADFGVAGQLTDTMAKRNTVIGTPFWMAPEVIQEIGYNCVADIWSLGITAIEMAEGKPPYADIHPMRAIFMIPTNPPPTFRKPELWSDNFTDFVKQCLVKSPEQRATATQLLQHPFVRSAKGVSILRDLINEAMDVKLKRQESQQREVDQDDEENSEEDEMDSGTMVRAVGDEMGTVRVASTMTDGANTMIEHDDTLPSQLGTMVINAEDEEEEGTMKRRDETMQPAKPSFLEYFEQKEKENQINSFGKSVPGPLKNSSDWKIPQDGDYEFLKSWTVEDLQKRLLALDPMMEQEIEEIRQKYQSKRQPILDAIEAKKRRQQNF
To be noted: MST1; 1 uM. In outline: as §1

Assay [3] has as its target T3, kinases of the scanMAX Kinase assay panel (Homo sapiens, UniProt Q92772).
T3 construct: purchased DiscoverX Co. (contract measurement) scanMAX Kinase assay panel
T3 sequence (Q92772 1-493): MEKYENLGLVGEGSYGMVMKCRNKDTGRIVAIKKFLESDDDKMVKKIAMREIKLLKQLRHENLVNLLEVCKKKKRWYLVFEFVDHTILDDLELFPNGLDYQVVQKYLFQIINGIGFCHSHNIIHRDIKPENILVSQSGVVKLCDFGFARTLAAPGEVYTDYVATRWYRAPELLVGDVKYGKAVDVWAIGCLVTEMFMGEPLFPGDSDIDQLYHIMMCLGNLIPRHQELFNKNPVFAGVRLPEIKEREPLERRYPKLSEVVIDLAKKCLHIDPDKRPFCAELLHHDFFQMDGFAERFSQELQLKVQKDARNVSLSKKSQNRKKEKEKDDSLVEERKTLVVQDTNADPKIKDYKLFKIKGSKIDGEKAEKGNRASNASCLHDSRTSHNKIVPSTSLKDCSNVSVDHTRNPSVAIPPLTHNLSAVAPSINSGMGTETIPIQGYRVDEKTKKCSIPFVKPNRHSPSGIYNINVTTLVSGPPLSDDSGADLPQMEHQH
Particulars: CDKL2; 1 uM. In outline: as §1

Data on 3 molecules can be found in patent publication US11208412B2 (DAEGU-GYEONGBUK MEDICAL INNOVATION FOUNDATION, priority 2017, dated 2021).

With `CNc1nc(Nc2ccc(C(=O)N3CCOCC3)cc2OC)nc2[nH]cc(C#N)c12` [Example 1, 2-((2-methoxy-4-(morpholine-4-carbonyl)phenyl)amino)-4-(methylamino)-7H-pyrrolo[2,3-d]pyrimidine-5-carbonitrile], the remaining binding at 1 µM in assay [1] was determined as 100%; in assay [2] it was 93%; in assay [3], 99%.

With `CC1(Nc2nc(Nc3cnn([C@H]4CCN(C5COC5)C[C@@H]4F)c3Cl)nc3[nH]cc(C#N)c23)CC1` [Example 52, 2-((5-chloro-1-((3S,4S)-3-fluoro-1-(oxetane-3-yl)piperidine-4-yl)-1H-pyrazole-4-yl)amino)((1-methylcyclopropyl)amino)-7H-pyrrolo[2,3-d]pyrimidine-5-carbonitrile], the remaining binding at 1 µM in assay [1] came to 41%; in assay [2] it was 17%; in assay [3], 73%.

For the molecule `CCNc1nc(Nc2ccc(C(=O)N3CCC(N4CCOCC4)CC3)cc2OC)nc2[nH]cc(C(F)(F)F)c12` [Example 104, (4-((4-(ethylamino)-5-(trifluoromethyl)-7H-pyrrolo[2,3-d]pyrimidine-2-yl)amino)-3-methoxyphenyl)(4-morpholinopiperidine-1-yl)methanone], the remaining binding at 1 µM in assay [1], in assay [2] and in assay [3] was 100% each time.
